The SangsterLogP compilation

Structure (SMILES) | logP
COc1cccc([C@]2(O)CCCC[C@H]2CN(C)C)c1 (relative stereo) | 2.51
COc1ccccc1/C=C/C(=O)O | 2.54
OC(c1ccccc1)C(O)c1ccccc1 (stereo not drawn) | 1.91
CC(=O)OC1(c2ccccc2)CCN(C)C(C)C1C (stereo not drawn) | 2.51
NC1C2CCC1c1ccccc12 (stereo not drawn) | 2.01
O=[N+]([O-])c1ccc(O[C@@H]2O[C@H](CO)[C@H](O)[C@H](O)[C@H]2O)cc1 | -0.63
NC1C2CCC1c1cccc(C(F)(F)F)c1C2 (stereo not drawn) | 3.41
NC1C2CCC1c1ccccc1C2 (stereo not drawn) | 2.04
NC1C2CCC1c1ccc(C(F)(F)F)cc1C2 (stereo not drawn) | 3.54
C[C@H](N)[C@H](O)c1ccccc1 (relative stereo) | 0.67
CCC(=O)OC1(c2ccccc2)CCN(C)CC1C (stereo not drawn) | 2.43
CCC(=O)OC1(c2ccccc2)CCN(C)C(C)C1C (stereo not drawn) | 2.97
CCC(=O)O[C@]1(c2ccccc2)C[C@H](C)N(C)C[C@H]1C | 3.13
NC1CCc2ccccc2C1O (stereo not drawn) | 0.81
NC1C2CCC1c1cc(C(F)(F)F)ccc1C2 (stereo not drawn) | 3.45
C=C[C@H]1CN2CC[C@H]1C[C@@H]2[C@@H](O)c1ccnc2ccccc12 | 2.68
Cc1cc(=O)oc2ccc(O[C@@H]3O[C@H](CO)[C@@H](O)[C@H](O)[C@H]3O)cc12 | -0.66
C=CCC1CN(C)CCC1(OC(=O)CC)c1ccccc1 (stereo not drawn) | 2.97
